Results as given in patent US20120316187A1, “MOLECULAR BIOMARKERS FOR PREDICTING RESPONSE TO TYROSINE KINASE INHIBITORS IN LUNG CANCER” (PANGAEA BIOTECH, S.L., priority 2009, published 2012).
Read-outs that look alike come from different tables or passages of the source.

Legend:
T790M resistance mutants = conditions: in vitro; cited from earlier work
[1] = test system: non-small-cell lung cancer patients with EGFR mutations; conditions: for TTP (months): first line treatment with erlotinib
Excerpt: The term “clinical response”, as used herein, refers to the response of the subject suffering from NSCLC to a therapy with a tyrosine kinase inhibitor. Standard criteria (Miller, et al. Cancer, 1981; 47:207-14) that can be used herewith to evaluate the response to chemotherapy include response, stabilization and progression. It can be a complete response (or complete remission) which is the disappearance of all detectable malignant disease or a partial response which is defined as approximately >50% decrease in the sum of products of the largest perpendicular diameters of one or more lesions (tumor lesions), no new lesions and no progression of any lesion. Patients achieving complete or partial response were considered “responders”, and all other patients were considered “non-responders”.
The presence of the T790M mutation was examined in 129 patients for whom pretreatment tumor tissue was available.

[2] = 81 patients, BRCA1 4.92-10.7 N = 27
[3] = 81 patients, BRCA1 >10.7 N = 27
[4] = 81 patients, BRCA1 ≦4.92 N = 27
[5] = 129 patients, patients with the T790M mutation
[6] = 129 patients, patients without the T790M mutation
[7] = patients with the T790M mutation, BRCA1 4.92-11.79
[8] = patients with the T790M mutation, BRCA1 >11.79
[9] = patients with the T790M mutation, BRCA1 ≦4.92
[10] = patients without the T790M mutation, BRCA1 4.92-11.79
[11] = patients without the T790M mutation, BRCA1 >11.79
[12] = patients without the T790M mutation, BRCA1 ≦4.92

SMILES: CC#CC(=O)Nc1ccc2ncnc(Nc3cccc(Br)c3)c2c1 [CL-387,785]
- inhibition of growth of the T790M resistance mutants (T790M resistance mutants): inhibit the growth of the T790M resistance mutants

SMILES: C#Cc1cccc(Nc2ncnc3cc(OCCOC)c(OCCOC)cc23)c1 [erlotinib, [6,7-bis(2-methoxyethoxy)-4-quinazolin-4-yl]-(3-ethynylphenyl)amine]
- median progression-free survival ([1]; 28 patients harboring the T790M mutation, high BRCA1 levels): 8 months
- median progression-free survival ([1]; 28 patients harboring the T790M mutation, intermediate BRCA1 levels): 4 months
- median progression-free survival ([1]; 28 patients harboring the T790M mutation, low BRCA1 levels): 19 months
- progression-free survival ([1]; 34 patients receiving erlotinib as first-line treatment (so in the source), high BRCA1 levels): 9 months
- progression-free survival ([1]; 34 patients receiving erlotinib as first-line treatment (so in the source), intermediate BRCA1 levels): 24 months
- progression-free survival ([1]; 34 patients receiving erlotinib as first-line treatment (so in the source), low BRCA1 levels): not reached
- progression-free survival ([1]; 47 patients receiving erlotinib as first-line treatment, high BRCA1 levels): 16 months
- progression-free survival ([1]; 47 patients receiving erlotinib as first-line treatment, intermediate BRCA1 levels): 9 months
- progression-free survival ([1]; 47 patients receiving erlotinib as first-line treatment, low BRCA1 levels): 27 months
- median progression-free survival ([1]; 53 patients without the T790M mutation, high BRCA1 levels): 12 months
- median progression-free survival ([1]; 53 patients without the T790M mutation, intermediate BRCA1 levels): not reached
- median progression-free survival ([1]; 53 patients without the T790M mutation, low BRCA1 levels): 27 months
- progression-free survival ([1]; 64 patients receiving erlotinib as second-line treatment, with the T790M mutation): 13 months
- progression-free survival ([1]; 64 patients receiving erlotinib as second-line treatment, without the T790M mutation): 18 months
- progression-free survival ([1]; 65 patients receiving erlotinib as first-line treatment, with the T790M mutation): 8 months
- progression-free survival ([1]; 65 patients receiving erlotinib as first-line treatment, without the T790M mutation): 18 months
- Complete or partial response, (%) [1, 2]: (72) %
- Complete response, (%) [1, 2]: (16) %
- Partial response, (%) [1, 2]: (56) %
- Progressive disease, (%) [1, 2]: (12) %
- Stable disease, (%) [1, 2]: (16) %
- Complete or partial response, (%) [1, 3]: (68.2) %
- Complete response, (%) [1, 3]: (9.1) %
- Partial response, (%) [1, 3]: (59.1) %
- Progressive disease, (%) [1, 3]: (9.1) %
- Stable disease, (%) [1, 3]: (22.7) %
- Complete or partial response, (%) [1, 4]: (76) %
- Complete response, (%) [1, 4]: (20) %
- Partial response, (%) [1, 4]: (56) %
- Progressive disease, (%) [1, 4]: (8) %
- Stable disease, (%) [1, 4]: (16) %
- Median progression-free survival to erlotinib ([1]; 81 patients, high BRCA1 levels): 10 months
- Median progression-free survival to erlotinib ([1]; 81 patients, intermediate BRCA1 levels): 18 months
- Overall survival ([1]; 81 patients, intermediate or high BRCA1 levels): not reached
- Median progression-free survival to erlotinib ([1]; 81 patients, low BRCA1 levels): 27 months
- Overall survival ([1]; 81 patients, low BRCA1 levels): 33 months
- Overall survival [1, 5]: 27 months
- median progression-free survival [1, 5]: 12 months
- Overall survival [1, 6]: 29 months
- median progression-free survival [1, 6]: 18 months
- Complete or partial response, (%) ([1]; All patients N = 129): (68.9) %
- Complete response, (%) ([1]; All patients N = 129): (10.3) %
- Partial response, (%) ([1]; All patients N = 129): (58.6) %
- Progressive disease, (%) ([1]; All patients N = 129): (12.9) %
- Stable disease, (%) ([1]; All patients N = 129): (18.1) %
- Complete or partial response, (%) ([1]; T790M-negative N = 84): (72.3) %
- Complete response, (%) ([1]; T790M-negative N = 84): (13.9) %
- Partial response, (%) ([1]; T790M-negative N = 84): (58.3) %
- Progressive disease, (%) ([1]; T790M-negative N = 84): (11.1) %
- Stable disease, (%) ([1]; T790M-negative N = 84): (16.7) %
- Complete or partial response, (%) ([1]; T790M-positive N = 45): (63.6) %
- Complete response, (%) ([1]; T790M-positive N = 45): (4.5) %
- Partial response, (%) ([1]; T790M-positive N = 45): (59.1) %
- Progressive disease, (%) ([1]; T790M-positive N = 45): (15.9) %
- Stable disease, (%) ([1]; T790M-positive N = 45): (20.5) %
- TTP (months) ([1]; T790M mutation No, BRCA1 levels High/Intermediate): 18 months
- TTP (months) ([1]; T790M mutation No, BRCA1 levels Low): 27 months
- TTP (months) ([1]; T790M mutation Yes, BRCA1 levels High/Intermediate): 3 months
- TTP (months) ([1]; T790M mutation Yes, BRCA1 levels Low): 27 months
- Complete or partial response, number of patients [1, 7]: 5
- Complete or partial response, share in parentheses [1, 7]: (55.6)
- Complete response, number of patients [1, 7]: 0
- Complete response, share in parentheses [1, 7]: (0)
- Partial response, number of patients [1, 7]: 5
- Partial response, share in parentheses [1, 7]: (55.6)
- Progressive disease, number of patients [1, 7]: 2
- Progressive disease, share in parentheses [1, 7]: (22.2)
- Stable disease, number of patients [1, 7]: 2
- Stable disease, share in parentheses [1, 7]: (22.2)
- Complete or partial response, number of patients [1, 8]: 7
- Complete or partial response, share in parentheses [1, 8]: (77.8)
- Complete response, number of patients [1, 8]: 1
- Complete response, share in parentheses [1, 8]: (11.1)
- Partial response, number of patients [1, 8]: 6
- Partial response, share in parentheses [1, 8]: (66.7)
- Progressive disease, number of patients [1, 8]: 1
- Progressive disease, share in parentheses [1, 8]: (11.1)
- Stable disease, number of patients [1, 8]: 1
- Stable disease, share in parentheses [1, 8]: (11.1)
- Complete or partial response, number of patients [1, 9]: 7
- Complete or partial response, share in parentheses [1, 9]: (70)
- Complete response, number of patients [1, 9]: 1
- Complete response, share in parentheses [1, 9]: (10)
- Partial response, number of patients [1, 9]: 6
- Partial response, share in parentheses [1, 9]: (60)
- Progressive disease, number of patients [1, 9]: 1
- Progressive disease, share in parentheses [1, 9]: (10)
- Stable disease, number of patients [1, 9]: 2
- Stable disease, share in parentheses [1, 9]: (20)
- Complete or partial response, number of patients [1, 10]: 13
- Complete or partial response, share in parentheses [1, 10]: (76.5)
- Complete response, number of patients [1, 10]: 4
- Complete response, share in parentheses [1, 10]: (23.5)
- Partial response, number of patients [1, 10]: 9
- Partial response, share in parentheses [1, 10]: (52.9)
- Progressive disease, number of patients [1, 10]: 1
- Progressive disease, share in parentheses [1, 10]: (5.9)
- Stable disease, share in parentheses [1, 10]: (17.6)
- Complete or partial response, number of patients [1, 11]: 7
- Complete or partial response, share in parentheses [1, 11]: (63.6)
- Complete response, number of patients [1, 11]: 1
- Complete response, share in parentheses [1, 11]: (9.1)
- Partial response, number of patients [1, 11]: 6
- Partial response, share in parentheses [1, 11]: (54.5)
- Progressive disease, number of patients [1, 11]: 1
- Progressive disease, share in parentheses [1, 11]: (9.1)
- Stable disease, share in parentheses [1, 11]: (27.3)
- Complete or partial response, number of patients [1, 12]: 13
- Complete or partial response, share in parentheses [1, 12]: (81.3)
- Complete response, number of patients [1, 12]: 4
- Complete response, share in parentheses [1, 12]: (25)
- Partial response, number of patients [1, 12]: 9
- Partial response, share in parentheses [1, 12]: (56.3)
- Progressive disease, number of patients [1, 12]: 1
- Progressive disease, share in parentheses [1, 12]: (6.3)
- Stable disease, number of patients [1, 12]: 2
- Stable disease, share in parentheses [1, 12]: (12.5)
- progression-free survival ([1]; subgroup of 48 patients with L858R, with the T790M mutation): 16 months
- progression-free survival ([1]; subgroup of 48 patients with L858R, without the T790M mutation): 15 months
- progression-free survival ([1]; subgroup of 81 patients with del 19, with the T790M mutation): 12 months
- progression-free survival ([1]; subgroup of 81 patients with del 19, without the T790M mutation): 20 months
